Experimental data: PubChem BioAssay AID977621 (Broad Institute, 2014)
Results filed as inconclusive are left out. Activity calls are given as the source filed them.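 Rule for the calls: active = Wild-type ribosome reporter drop at least double the humanized mutant ribosome reporter drop, growth loss under a set limit; inconclusive = no clear call, values can overlap the other calls; inactive = the rest.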

What was measured:
[1] = tested on: E. coli H69 humanized mutant ribosome RFP strain growth, fluorescence, 24 h; test: wild-type E. coli growth inhibition versus H69 humanized strain – H69 mutant RFP, wild-type GFP, cherry-pick, dose response (AID 977621); conditions: test 2;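 note: wild-type GFP and H69 mutant RFP strains grown together 50/50 in each well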
[2] = tested on: E. coli wild-type GFP strain growth, fluorescence, 24 h; test: as above
[3] = E. coli mixed culture, 24 h, measured here: total growth OD600, test 2

Structure (SMILES) | AC50 [1] [µM] | AC50 [2] | AC50 [2, 3] [µM]
Cc1ccc(N(CC(O)Cn2nc(C)cc2C)S(=O)(=O)c2ccc3ccccc3c2)cc1 (stereo not drawn) | > 100 | > 100 µM (inactive) | 31.5
CCn1cc(Br)c(C(=O)Nc2ccc(C(=O)OC(C)C)cc2)n1 | 24.1 | > 100 µM (inactive) | –
O=C(NCc1ccccc1Cl)[C@H]1CCCN1C(=O)[C@H]1CCCN1C(=O)c1cccc2ccccc12 | > 100 | > 100 µM (inactive) | 48
